{
  "source": "paper PMC8398847",
  "about": "“Isavuconazole: Thermodynamic Evaluation of Processes Sublimation, Dissolution and Partition in Pharmaceutically Relevant Media” (Molecules, 2021)",
  "experiment": "Vapor pressure by transpiration (inert gas-carrier transfer) method; sublimation thermodynamic functions",
  "assay_type": "physicochemical",
  "details": "for lnp: p in Pa",
  "protocol": "The thermodynamic functions of sublimation were calculated as the fitting coefficients of the Clarke and Glew equation [17]:(1) Rlnp/p^0=ΔcrgGm°(θ)/θ+ΔcrgHm°(θ)(1/θ−1/T)+ΔcrgCp,m°(θ)(θ/T−1+lnT/θ) where ΔcrgHm°(θ) is the standard molar sublimation enthalpy, ΔcrgGm°(θ) is the standard molar Gibbs energy of sublimation, and ΔcrgCp,m°(θ) is the difference between the constant pressure standard molar heat capacity Cp,m°(g) of the gaseous compound and the constant pressure standard molar heat capacity Cp,m°(cr) of the crystalline compound. The value is the arbitrary reference temperature θ = 298.15 K; p^0 = 10^5 Pa is the reference pressure.\nThe transpiration method was used for the sublimation experiment. A stream of an inert gas (nitrogen) was passed over a sample at the constant temperature and flow rate; saturation of the gas with the substance vapor was achieved by low transpiration rate of gas. Then, the sublimated quantity of condensed vapor was determined. The volume of the inert gas and the amount of the sublimated material were used for calculation the vapor pressure over the sample of compound at this temperature. The following procedure was used for determination the amount of sublimed substance. The condensed sample was dissolved in a known volume of solvent Vsol. The mass of the substance was determined by the measurement of absorbance A of its solution (spectrophotometer Cary-50, Varian, Palo Alto, CA, USA, Software Version 3.00 (339)). According to the Lambert–Beer law the concentration of the solution c (mol·L^−1) can express knowing a value of the extinction coefficient ε (l·mol^−1·cm^−1) of the studied compound dissolved in the solvent and an absorbing path length (l):A = εcl(5) where l is an absorbing path length. Calculation the mass of sublimed compound was performed according to the equation:m = cVsolM(6)\nM is the molar mass of the studied substance.\nThe vapor pressure p at each temperature was determined from the amount of the substance collected within a known time:p = mRTa/VM(7) where V is the volume of the gaseous nitrogen evaluated from the time measurement and the flow rate at the flow meter temperature Ta and the atmospheric pressure. Uncertainties for transpiration experiment parameters (T, m, Ta, V) are reported as standard deviations (Table 1). The combined standard uncertainty of vapor pressure measurements were estimated taking into account uncertainties of all variables involved in eq 7.\nThe details of equipment and experimental procedure are given in [33]. The sublimation technique was tested with benzoic acid as standard. The experimental vapor pressure values were obtained in the temperature interval of (307–385) K and were in good agreement with the results of studies within the limits of experimental error (Figure S7). The standard sublimation enthalpy of benzoic acid measured by us was 90.5 ± 0.3 kJ·mol^−1 and consistent with recommended by IUPAC value—89.7 ± 0.5 kJ·mol^−1 [38]. Each experiment at fixed temperature was repeated three times with the standard deviation of up to 5%.",
  "key": {"[1]": {"details": "298.15 K, experimental, Clarke and Glew equation"}},
  "note": "Where “and” joins values, the source holds several entries; their conditions need not be identical. Equal entries are not always repeated.",
  "data": [
    {"compound": "C[C@@H](c1nc(-c2ccc(C#N)cc2)cs1)[C@](O)(Cn1cncn1)c1cc(F)ccc1F", "note": "[IVZ, Isavuconazole]", "values": [
      {"measurement": "standard molar Gibbs energy of sublimation ΔcrgGm°(298.15 K)", "setting": "[1]", "result": "16.5 ± 0.048", "unit": "kcal/mol"},
      {"measurement": "standard molar enthalpy of sublimation ΔcrgHm°(298.15 K)", "setting": "[1]", "result": "33.01 kcal/mol and 33.01 ± 0.12 kcal/mol"},
      {"measurement": "standard molar Gibbs energy of sublimation ΔcrgGm°(298.15 K)", "setting": "298.15 K, experimental, Clarke and Glew equation, listed as Isavuconazole", "result": 16.5, "unit": "kcal/mol"},
      {"measurement": "vapor pressure 10^3 p", "setting": "365.15 K", "result": 1.95, "unit": "Pa"},
      {"measurement": "saturated vapor pressure values", "setting": "365.15–383.15 K", "result": "0.001–0.01 Pa"},
      {"measurement": "vapor pressure 10^3 p", "setting": "367.15 K", "result": 2.50, "unit": "Pa"},
      {"measurement": "vapor pressure 10^3 p", "setting": "369.15 K", "result": 3.19, "unit": "Pa"},
      {"measurement": "vapor pressure 10^3 p", "setting": "371.15 K", "result": 4.02, "unit": "Pa"},
      {"measurement": "vapor pressure 10^3 p", "setting": "372.15 K", "result": 4.55, "unit": "Pa"},
      {"measurement": "vapor pressure 10^3 p", "setting": "373.15 K", "result": 5.11, "unit": "Pa"},
      {"measurement": "vapor pressure 10^3 p", "setting": "374.15 K", "result": 5.72, "unit": "Pa"},
      {"measurement": "vapor pressure 10^3 p", "setting": "376.15 K", "result": 7.22, "unit": "Pa"},
      {"measurement": "vapor pressure 10^3 p", "setting": "378.15 K", "result": 8.83, "unit": "Pa"},
      {"measurement": "vapor pressure 10^3 p", "setting": "379.15 K", "result": 9.83, "unit": "Pa"},
      {"measurement": "vapor pressure 10^3 p", "setting": "380.15 K", "result": 11.19, "unit": "Pa"},
      {"measurement": "vapor pressure 10^3 p", "setting": "381.15 K", "result": 12.30, "unit": "Pa"},
      {"measurement": "vapor pressure 10^3 p", "setting": "382.15 K", "result": 13.79, "unit": "Pa"},
      {"measurement": "vapor pressure 10^3 p", "setting": "383.15 K", "result": 15.37, "unit": "Pa"},
      {"measurement": "lnp", "setting": "365.15 K", "result": "−6.241"},
      {"measurement": "lnp", "setting": "367.15 K", "result": "−5.991"},
      {"measurement": "lnp", "setting": "369.15 K", "result": "−5.749"},
      {"measurement": "lnp", "setting": "371.15 K", "result": "−5.515"},
      {"measurement": "lnp", "setting": "372.15 K", "result": "−5.393"},
      {"measurement": "lnp", "setting": "373.15 K", "result": "−5.277"},
      {"measurement": "lnp", "setting": "374.15 K", "result": "−5.163"},
      {"measurement": "lnp", "setting": "376.15 K", "result": "−4.931"},
      {"measurement": "lnp", "setting": "378.15 K", "result": "−4.729"},
      {"measurement": "lnp", "setting": "379.15 K", "result": "−4.622"},
      {"measurement": "lnp", "setting": "380.15 K", "result": "−4.493"},
      {"measurement": "lnp", "setting": "381.15 K", "result": "−4.398"},
      {"measurement": "lnp", "setting": "382.15 K", "result": "−4.283"},
      {"measurement": "lnp", "setting": "383.15 K", "result": "−4.175"},
      {"measurement": "ΔcrgSm°(298.15 K)", "setting": "sublimation, 298.15 K", "result": "230.4 ± 4.6", "unit": "J·mol^−1·K^−1"},
      {"measurement": "ΔcrgCp,m°", "setting": "sublimation, gas minus crystal heat capacity", "result": "−71.8", "unit": "J·mol^−1·K^−1"}
    ]}
  ]
}
